Data published in patent US7045532B2 (Millennium Pharmaceuticals, Inc., priority 1999, dated 2006).

molecular target: T1, ACE-2 (Homo sapiens, UniProt Q9BYF1); assay: ACE-2 Competitive Substrate Assay (ACS Assay); assay type: biochemical; details: Ki class per key; compounds tested in 5% DMSO, 12 compound concentrations, 25° C.; Ki=Kiapp/(1+[S]/Km); read-out: Human ACE-2 Activity
T1 construct: a stop codon inserted after the serine immediately preceding the transmembrane domain; made in house; host or cells: CHO K1 cells (transient transfection, purified from conditioned medium)
T1 sequence (Q9BYF1 18-740 limits assumed): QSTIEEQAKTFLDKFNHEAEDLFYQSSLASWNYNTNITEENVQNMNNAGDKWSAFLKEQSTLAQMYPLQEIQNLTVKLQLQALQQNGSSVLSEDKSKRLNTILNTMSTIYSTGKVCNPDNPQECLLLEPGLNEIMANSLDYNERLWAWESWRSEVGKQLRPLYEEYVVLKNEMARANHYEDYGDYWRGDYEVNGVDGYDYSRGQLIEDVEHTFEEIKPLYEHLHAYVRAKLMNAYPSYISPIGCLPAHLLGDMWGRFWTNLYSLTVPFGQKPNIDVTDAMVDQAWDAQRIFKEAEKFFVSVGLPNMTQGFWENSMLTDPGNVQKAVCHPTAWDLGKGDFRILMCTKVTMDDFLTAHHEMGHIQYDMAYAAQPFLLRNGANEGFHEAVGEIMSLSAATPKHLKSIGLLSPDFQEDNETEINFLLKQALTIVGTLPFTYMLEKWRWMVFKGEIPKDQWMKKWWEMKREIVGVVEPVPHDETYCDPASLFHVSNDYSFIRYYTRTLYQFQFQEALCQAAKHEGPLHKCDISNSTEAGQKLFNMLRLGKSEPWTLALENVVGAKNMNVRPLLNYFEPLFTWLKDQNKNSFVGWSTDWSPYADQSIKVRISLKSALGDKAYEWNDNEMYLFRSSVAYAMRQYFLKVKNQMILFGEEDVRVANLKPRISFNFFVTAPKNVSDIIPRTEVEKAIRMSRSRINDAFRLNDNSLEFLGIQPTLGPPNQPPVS

| SMILES | Ki [nM] |
| --- | --- |
| C[C@@H](N[C@@H](Cc1cncn1Cc1cc(Cl)cc(Cl)c1)C(=O)O)C(=O)O [PM, 2-(1-Carboxy-ethylamino)-3-[3-(3,5-dichloro-benzyl)-3H-imidazol-4-yl]-propionic acid] | > 500 |
| CC(C)C[C@H](N[C@@H](Cc1ccc(C(=O)NCc2ccccc2)cc1)C(=O)O)C(=O)O [QG, 2-[2-(4-Benzylcarbamoyl-phenyl)-1-carboxy-ethylamino]-4-methyl-pentanoic acid] | > 500 |
| CC(C)C[C@H](N[C@@H](Cn1ccn(CCc2ccccc2F)c1=O)C(=O)O)C(=O)O [PP, 2-(1-Carboxy-2-{3-[2-(2-fluoro-phenyl)-ethyl]-2-oxo2,3-dihydro-imidazol-1-yl}-ethylamino)-4-methyl-pentanoic acid] | > 500 |
| CC(C)C[C@H](N[C@@H](Cc1ccc(OCc2csc3ccccc23)cc1)C(=O)O)C(=O)O [QX, 2-{2-[4-(Benzo[b]thiophen3-ylmethoxy)-phenyl]-1-carboxy-ethylamino]-4-methyl-pentanoic acid] | < 100 |
| CC(C)C[C@H](N[C@@H](Cc1ccccc1Oc1cc(Cl)cc(Cl)c1)C(=O)O)C(=O)O [QN] | < 100 |

same assay, conditions: Ki class; compounds tested in 5% DMSO, 12 compound concentrations, Ki=Kiapp/(1+[S]/Km); read-out: Human ACE-2 Activity

| SMILES | Ki [nM] |
| --- | --- |
| COc1cc(OC)cc(-c2cccc(C[C@H](N[C@@H](CC(C)C)C(=O)O)C(=O)O)c2)c1 [MK, (S,S)-2-[1-Carboxy-2-(3′,5′-dimethoxy-biphenyl-3-yl)-ethylamino]-4-methyl-pentanoic acid] | > 500 |
| Cc1cc(C)cc(COc2ccc(C[C@H](N[C@@H](CC(C)C)C(=O)O)C(=O)O)cc2)c1 [KT, 2-[1-Carboxy-2-[4-(3,5-dimethyl-benzyloxy)-phenyl]-ethylamino]-4-methyl-pentanoic acid] | 100 to 500 |
| Cc1nc(C[C@H](NC(CC(C)C)C(=O)O)C(=O)O)cs1 (single isomer, unassigned) [GY, 2-[1-Carboxy-2-(2-methyl-thiazol-4-yl)-ethylamino]-4-methyl-pentanoic acid] | > 500 |
| Cc1ccc(-c2cccc(C[C@H](N[C@@H](CC(C)C)C(=O)O)C(=O)O)c2)cc1 [LY, (S,S)-2-[1-Carboxy-2-(4′-methyl-biphenyl-3-yl)-ethylamino]-4-methyl-pentanoic acid] | > 500 |
| CC(C)C[C@H](N[C@@H](Cc1ccc(OC(C)(C)C)cc1)C(=O)O)C(=O)O [LU, 2-[2-(4-tert-Butoxy-phenyl)-1-carboxy-ethylamino]-4-methyl-pentanoic acid] | > 500 |
| CC(C)C[C@H](N[C@@H](Cc1ccc(-c2ccc3c(c2)OCO3)o1)C(=O)O)C(=O)O [OJ, (S,S)-2-[2-(5-Benzo[1,3]dioxol-5-yl-furan-2-yl)-1-carboxy-ethylamino]-4-methyl-pentanoic acid] | 100 to 500 |
| Cc1ccc(-c2ccc(C[C@H](N[C@@H](CC(C)C)C(=O)O)C(=O)O)o2)cc1 [NO, (S,S)-2[1-Carboxy-2-(5-p-tolyl-furan-2-yl)-ethylamino]-4-methyl-pentanoic acid] | 100 to 500 |
| CCC(CC)Cn1cncc1C[C@H](NC(CC(C)C)C(=O)O)C(=O)O (single isomer, unassigned) [JM, 2-[1-Carboxy-2-[3-(2-ethylbutyl)-3H-imidazol-4-yl]-ethylamino]-4-methyl-pentanoic acid] | < 100 |
| CC(C)C[C@H](N[C@@H](Cn1ccn(CC2CC2)c1=O)C(=O)O)C(=O)O [MH, 2-[1-Carboxy-2-(3-cyclopropylmethyl-2-oxo-2,3-dihydro-imidazol-1-yl)-ethylamino]-4-methyl-pentanoic acid] | 100 to 500 |
| COc1cccc(Cn2cncc2C[C@H](NC(CC(C)C)C(=O)O)C(=O)O)c1OC (single isomer, unassigned) [IO, 2-[1-Carboxy-2-[3-(2,3-dimethoxy-benzyl)-3H-imidazol-4-yl]-ethylamino)4-methyl-pentanoic acid] | < 100 |
| CC(C)C[C@H](N[C@@H](Cn1ccn(Cc2cccc(F)c2)c1=O)C(=O)O)C(=O)O [OT, 2-{1-Carboxy-2-[3-(3-fluoro-benzyl)-2-oxo-2,3-dihydro-imidazol-1-yl]-ethylamino]-4-methyl-pentanoic acid] | < 100 |

same assay, conditions: Table 3, very good ACE-2 inhibiting compounds; species not given; read-out: ACE-2 Activity, Ki

| SMILES | Ki [nM] |
| --- | --- |
| CC(C)C[C@H](N[C@@H](Cc1ccccc1Oc1cc(Cl)cc(Cl)c1)C(=O)O)C(=O)O [QN] | < 50 |
| COc1cccc(Cn2cncc2C[C@H](NC(CC(C)C)C(=O)O)C(=O)O)c1OC (single isomer, unassigned) [IO, 2-[1-Carboxy-2-[3-(2,3-dimethoxy-benzyl)-3H-imidazol-4-yl]-ethylamino)4-methyl-pentanoic acid] | 50 to 100 |
| CC(C)C[C@H](N[C@@H](Cn1ccn(Cc2cccc(F)c2)c1=O)C(=O)O)C(=O)O [OT, 2-{1-Carboxy-2-[3-(3-fluoro-benzyl)-2-oxo-2,3-dihydro-imidazol-1-yl]-ethylamino]-4-methyl-pentanoic acid] | 50 to 100 |
